# In article PMC9780888, “4-Isobutylmethcathinone—A Novel Synthetic Cathinone with High In Vitro Cytotoxicity and Strong Receptor Binding Preference of Enantiomers” (Pharmaceuticals, 2022):
# Read-outs that look alike come from different tables or passages of the source.
# Tests used:
# CaCo-2 cells = experiment: Fluorescence microscopy of cell morphology, CaCo-2; assay type: cell-based, human; conditions: CaCo-2, 24-h treatment, 100, 300 and 500 µM tested; cells smaller, roundish, in clusters
# Text: In addition to the evaluation of IBMcat cytotoxicity in various cell lines, its impact on cell morphology was also examined in CaCo-2 and MRC-5 cells after 24-h treatment. F-actin and cell nuclei were visualized in these cells treated with 100, 300, and 500-µM concentrations of IBMcat and its enantiomers. IBMcat (Figure 7) induced a considerable change in CaCo-2 cell morphology already from 300-µM concentration, the cells were smaller, bore roundish shapes, and grew in clusters when compared to control untreated cells. This could be ascribed to the substantial toxicity of IBMcat manifested already after 24 h at this concentration. No difference was observed between the individual enantiomers.
# A total of 1 × 10^5 CaCo-2 and MRC-5 cells were seeded into 35-mm glass-bottom dishes for live-cell imaging ((#1.5, MatTek, USA; Ibidi dishes, Germany). After 16 h, the cells were gently washed with phosphate-buffered saline (PBS; pH 7.4), and then, cultivation media containing 100–500 µM IBMCat was added. Untreated cells and cells treated with the vehicle served as controls. After 24 h of the cell incubation with IBMCat, the cells were gently washed with PBS and then fixed with a 4% solution of formaldehyde (methanol-free, Thermo Fisher, USA) in PBS for 20 min. at 22 °C in the dark. Then, the fixative was discarded, and the cells were washed twice with PBS. […]
# [1] = system: 5637, SH-SY5Y, HMC-3, Hep G2, L929; HaCaT, CaCo-2, MRC-5, BJ cells; experiment: WST-1 viability assay, summary ranges over groups of cell lines; assay type: cell-based
# Protocol: Based on the novelty of the IMBcat compound, we aimed to evaluate its in vitro cytotoxicity in selected model cell lines as well as to determine the toxicity of the IBMcat enantiomers, since both the chemical structure and chirality of compounds could play a role in their bioactivity (Table 2). The cytotoxic profile of the IBMcat was determined by a WST-1 viability assay after 72-h treatment. For this purpose, cell lines derived from distinct tissues, often affected by NPSs, were chosen, i.e., cells of kidney, hepatic, neural, urinary, and intestinal origin as well as keratinocytes and primary fibroblasts (HEK 293T, Hep G2, HMC-3, SH-SY5Y, 5637, CaCo-2, HaCaT, MRC-5, and BJ, respectively). […]
# In this study, the following cell lines were used: HEK 293T, Hep G2, HMC-3, SH-SY5Y, 5637, CaCo-2, HaCaT, MRC-5, BJ, and L929. […] The selected cell lines were chosen so that not only primary noncancerous cells are evaluated but also cells derived from tissues, which are the most often affected by novel synthetic drugs, i.e., kidney, liver, urinary bladder, and nervous tissue. […]
# The cytotoxicity of IBMCat was evaluated in vitro by using a WST-1 viability assay (Sigma-Aldrich, Saint Louis, MO, USA) based on the transformation of a tetrazolium salt into colored formazan in metabolically active cells. […] After 72 h of additional incubation of the cells, their viability was determined by WST-1. […]
compound,measurement,setting,value
"CNC(C)C(=O)c1ccc(CC(C)C)cc1.Cl (stereo not drawn) [IBMcat, 4-isobutylmethcathinone hydrochloride]",concentration from which a considerable change in cell morphology was induced,CaCo-2 cells,≥ 300 µM
same,IC50,"[1]; 5637, SH-SY5Y, HMC-3 and Hep G2 cells, after 72 h, read-out: IC50 values (range over cell lines)",18 to 65 µM
same,IC50,"[1]; HaCaT, CaCo-2, MRC-5 and BJ cells, 72 h, racemate and enantiomers, read-out: IC50 (range over cell lines)",329 to 749 µM
